Laboratory results: patent US20200390793A1, “COMPOSITIONS AND METHODS USING OLEUROPEIN OR CURCUMIN FOR MUSCLE QUALITY AND/OR MUSCLE MASS” (SOCIETE DES PRODUITS NESTLE S.A., priority 2017, published 2020)

Test system: old rats
Test: Dietary polyphenol supplementation for 3 months in 20 months-old rats: muscle mass and muscle fiber area (immunofluorescence staining and microscopy)
Type: in vivo
Settings: supplemented diet for 3 months, compared with control and rutin groups
Source text: 20 months-old rats were fed either a control diet or the same diet supplemented with curcumin or rutin or oleuropein for 3 months. CON=control diet, RUT=control diet with rutin, OLE=control diet with oleuropein and CUR=control diet with curcumin. Old rats are a good model to assess the effect of nutritional intervention in age related muscle decline. With this model, it can be observed as in human a decrease in muscle mass and function and a change in muscle quality with age. The objective of the study was to determine the effects of curcumin, oleuropein and rutin on muscle quality in old rats and the association with muscle mass. 20 months-old rats have been divided in four groups and received a complete diet supplemented with either curcumin (CUR), oleuropein (OLE) or rutin (RUT) for 3 months. A control group (CON) received cellulose instead of polyphenols. Fiber type was analyzed in muscle by immunofluorescence staining and microscopy. Exact Wilcoxon test associated with Hodges-Lehmann to estimate the difference between groups and Kolmogorov-Smirnov test to assess the difference for the distribution have been performed for statistical analysis.

`COc1cc(/C=C/C(=O)CC(=O)/C=C/c2ccc(O)c(OC)c2)ccc1O` [CUR, curcumin] was tested, and the “amount of small fibers area (percentage of cells with an area below 700 μm^2, FIG. 3B)” value was “lower”, the “fiber crossectionnal area (FIG. 3A)” value was “higher” and the muscle mass was “higher”.
